# Test results as given in US20040241088A1, “Method for evaluating the efficacy of certain cancer treatments” (Georgetown University, priority 2003, published 2004).
# Tests used:
# [1] = tested on: 17 kDa fragment of caspase 3; experiment: 17 kDa fragment of caspase 3 in PANC-1 cells in vitro (Western); type: cell-based, human; conditions: 9 hours, Gemzar 0.8 μM, ODN 1 μM
# Protocol: A. To detect the presence of the 17 kDa active caspase 3 fragment in cell cultures the following procedure was used in subsequent Examples to isolate total protein from both living and dead floating cells. The medium from the cell culture vessel was removed and reserved.
# To lyse the cells, resuspend the cell pellet in 150 μl-200 μl RIPA buffer (with freshly prepared inhibitors) per 3×10^6 cells. RIPA buffer is 1×PBS, 1% NP40, 0.5% sodium deoxycholate, 0.1% SDS (this may be made in large volumes). Add inhibitors at time of use from the following stock solutions:
# In a further specific embodiment of this invention, it was determined that the cleaved 17 kDa subunit can be detected in tumor and/or blood as a means of verifying the efficacy of therapy with antisense (AS) HER-2, i.e. that the apoptotic pathway is induced by AS HER-2 treatment. […]
# Also evaluated in vitro was the induction of the 17 kDa fragment by the combination of the TfRscFv-LipA-AS HER-2 plus the chemotherapeutic agent Gemzar® (gemcitabine).
# [2] = tested on: components of the PI3K/AKT pathway and apoptosis; experiment: Western analysis of signal transduction and apoptosis proteins in PANC-1 cells; type: cell-based, human
# From the text: (§1) Treatment of Pancreatic Cancer (PanCa) with the tumor targeting TfRscFv-LipA-AS HER-2 complex can down-regulate HER-2 expression (even when not overexpressed), thus negatively affecting cell growth/survival and positively enhancing apoptotic pathways leading to increased tumor cell killing.
# The phosphorothioate sequence specific AS HER-2, complementary to the initiation codon region (5′-TCC ATG GTG CTC ACT-3′), and the control, non-sequence specific SC (5′-CTA GCC ATG CTT GTC-3′) ODNs were synthesized and purified by reverse phase HPLC by Ransom Hill Biosciences (Ramona, Calif.). […] PANC-1 or COLO 357 cells were seeded/in a six well plate and transfected 24 hours later with the TfRscFv-LipA complex carrying 1 μM (for PANC-1) or 0.5 μM (for COLO 357) AS HER-2 or SC HER-2 ODN (negative control). The cells were transfected with either oligo alone or, to look for a synergistic effect, in combination with gemcitabine (Gemzar®). At the indicated times, the cells were harvested, lysed in RIPA buffer, protein determined, run (60 ug total protein/lane) on a 4-20% gradient polyacrylamide/SDS gel and transferred to nitrocellulose for Western analysis as described in Examples 1, 3 and 4. To detect HER-protein expression the membranes were probed with the anti-human HER-2/Neu (C-18) rabbit polyclonal Ab (Santa Cruz Biotechnology) and the signal detected by ECL (Amersham). Change in protein expression as compared to untreated cells was also ascertained for total and/or phosphorylated Akt (Ser 473), a central component in the PI3K pathway (using an anti-Human polyclonal Ab, Cell Signaling Technology),phosphorylated BAD (Ser 136), an important factor in regulation of apoptosis (using an anti-human rabbit polyclonal antibody, Cell Signaling Technology), as well as cleaved caspase 3 (Asp 175) (using the rabbit polyclonal antibody, specific for the 17 kDa subunit, Cell Signaling Technology) and PARP/cleaved PARP (poly ADP ribopolymerase, another marker of apoptosis) using an anti-human rabbit polyclonal antibody, (Cell Signaling Technology) both downstream indicators of apoptosis.
# [3] = tested on: components of the PI3K/AKT pathway and apoptosis; experiment: Western analysis of signal transduction and apoptosis proteins in COLO357 cells; type: cell-based; conditions: 8 hrs post-transfection
# From the text: as §1
# The phosphorothioate sequence specific AS HER-2, complementary to the initiation codon region (5′-TCC ATG GTG CTC ACT-3′), and the control, non-sequence specific SC (5′-CTA GCC ATG CTT GTC-3′) ODNs were synthesized and purified by reverse phase HPLC by Ransom Hill Biosciences (Ramona, Calif.). […] PANC-1 or COLO 357 cells were seeded/in a six well plate and transfected 24 hours later with the TfRscFv-LipA complex carrying 1 μM (for PANC-1) or 0.5 μM (for COLO 357) AS HER-2 or SC HER-2 ODN (negative control). The cells were transfected with either oligo alone or, to look for a synergistic effect, in combination with gemcitabine (Gemzar®). At the indicated times, the cells were harvested, lysed in RIPA buffer, protein determined, run (60 ug total protein/lane) on a 4-20% gradient polyacrylamide/SDS gel and transferred to nitrocellulose for Western analysis as described in Examples 1, 3 and 4. To detect HER-protein expression the membranes were probed with the anti-human HER-2/Neu (C-18) rabbit polyclonal Ab (Santa Cruz Biotechnology) and the signal detected by ECL (Amersham). […]
# [4] = tested on: 17 kDa cleaved caspase 3 fragment; experiment: Tumor-specific localization of the 17 kDa fragment in tumor, liver and lung of PANC-1 xenograft mice; type: in vivo; conditions: PANC-1 tumor; ODN 10 mg/kg i.v. daily for six days; Gemzar 60 mg/kg i.p. x3; 24 hours after last injection
# Protocol: PANC-1 tumors were induced by implantation of <1 mm^3 tumor sections from serially passaged PANC-1 xenograft tumors into 4-6 week old female nude mice. When the tumors reached approximately 100-200 mm^3 the TfRscFv-LipA-AS HER-2 complex was i.v. injected into the tail vein daily for six days. The dose of ODN (AS or SC) administered per mouse was 10 mg/kg/injection. For comparison to standard therapy, a separate animal received chemotherapeutic agent Gemzar® (i.p.) only (60 mg/kg/injection) every other day to a total of three injections. In addition, one mouse received the combination of TfRscFv-LipA-AS HER-2 and Gemzar® at the above dose and schedule, and, as a control, one received the combination of complex carrying SC ODN and Gemzar® at the above dose and schedule. All mice were sacrificed 24 hours after the last injection and tumor, liver and lung were harvested as in Example 1. To assess tumor specific targeting in this model HER-2 and the 17 kDa cleaved caspase 3 fragment expression in the tissues was examined by Western Blot analysis Examples 3 and 4. The effect of TfRscFv-LipA-AS HER-2 on induction of the 17 kDa fragment in tumor and tissue samples also screened for HER-2 levels was examined.
# [5] = tested on: PANC-1 xenograft tumors; experiment: In vivo chemosensitization: growth of subcutaneous PANC-1 xenograft tumors; design: species or system mice; conditions: complex i.v. three times per week, ODN 9 mg/kg (18 injections); Gemzar i.p. twice weekly 60 mg/kg (12 injections)
# Protocol: The efficacy of the TfRscFv-LipA-AS HER-2 in treating PanCa in vivo was assessed using the subcutaneous PANC-1 xenograft mouse model. Athymic nude mice (5-9 mice/group with two tumors/mouse) bearing subcutaneous xenograft tumors of ˜50 mm^3 were treated three times per week with the TfRscFv-LipA-AS HER-2 complex containing ODN at 9 mg/kg/injection. As controls one group of animals received Gemzar® alone, the TfRscFv-LipA-AS HER-2 alone, or the combination of Gemzar® and the complex carrying the SC ODN. Gemzar® was given I.P. twice weekly at 60 mg/kg. The animals received a total of 18 i.v. injections of complex and 12 of Gemzar®.
structure (smiles),measurement,setting,value
"Nc1ccn([C@@H]2O[C@H](CO)[C@@H](O)C2(F)F)c(=O)n1 [Gemzar®, gemcitabine]",expression of 17 kDa fragment,[1],did not result in the expression of this fragment above background levels
same,cleaved caspase 3 (appearance of the 17 kDa protein),[2]; 8 hours post-transfection,not in those cells
same,cleaved PARP,[2]; 16 hours post-transfection,evident
same,cleaved caspase 3 (17 kDa fragment),[2]; 16 hours post-transfection,evident
same,cleaved PARP,[3],little or no evidence
same,cleaved caspase 3 (17 kDa subunit),[3],little or no evidence
same,induction of the 17 kDa fragment in the tumor,[4],not evident
same,tumor growth,[5],only minimal effect
